# Test results reported in US9938281B2 (Merck Sharp & Dohme Corp., priority 2012, dated 2018).
# Assays:
# PI3K-delta = target: T1, PI3K-delta (Homo sapiens, UniProt O00329); assay: HTRF PI3K biochemical assay, delta isoform; conditions: form screened (neutral or TFA salt) given, read-out: PI3Kdelta IC50
# T1 construct: purchased Upstate; Millipore 14-604
# Text: HTRF PI3K Biochemical Assay to Measure Intrinsic Potency of Compound Inhibitors
# This assay was developed and further optimized from a kit produced by Upstate (Millipore catalog #33-047) and has been configured for HTS and SAR screening. Briefly, this procedure exploits the exquisite specificity and high affinity binding of enzyme reaction substrate phosphatidyl(3,4,5)triphosphate (PIP3) to the GRP1 pleckstrin homology (PH) domain to generate the signal. In the absence of PIP3, an HTRF (Homogeneous Time-Resolved Fluorescence energy transfer) complex is formed consisting of europium (Eu)-labeled anti-GST, GSTtagged GRP1-PH domain, biotin-PIP3 and streptavidin conjugated APC. The native PIP3 produced by PI3-Kinase activity disrupts in a competitive manner the biotin-PIP3 from the PH domain, resulting in the loss of energy transfer (HTRF complex) and a decrease in the signal. The format of this assay is the same for all 4 isoforms of PI3K; the differences lie in the concentration of enzyme used to achieve robust assay window. The alpha, beta, and delta assays are run at 0.5, 1, and 0.3 nM enzymes and the gamma assay is run at 5 nM enzyme. The ATP concentration is 100 uM in the alpha, beta, and delta assays and 50 uM ATP in the gamma assay. All reactions are run at 5 uM PIP2.
# (§1) Compounds are serially diluted (3-fold in 100% DMSO) across a 384-well polypropylene source plated from column 3 to column 12 and column 13 to column 22, to yield 10 concentration dose response for each test compound. Columns 1, 2, 23 and 24 contain either only DMSO or pharmacological known control inhibitor.
# (§2) The PI3-Kinase biochemical assay was optimized using the HTRF kit provided by Upstate (Millipore). The assay kit contains six reagents: 1) 4× Reaction Buffer; 2) native PIP2 (substrate); 3) Stop (EDTA); 4) Detection Mix A (Streptavidin-APC); 5) Detection Mix B (Eu-labeled Anti-GST plus GST-tagged PH-domain); 6) Detection Mix C.
# (§3) PI3Kinase Reaction Buffer is prepared by dilution the stock 1:4 with de-ionized water. […] Enzyme addition and compound pre-incubation are initiated by the addition of 1.25 ul of PI3K (at twice its final concentration) in the 1× reaction buffer to all wells using a BioRaptor. Plates are incubated at room temperature for 15 minutes. Reactions are initiated by addition of 1.25 ul of 2× substrate solution (PIP2 and ATP in 1× reaction buffer) using BioRaptor. Plates are incubated in humidified chamber at room temperature for one hour. Reactions are quenched by addition of 0.625 uL of stop solution to all wells using the BioRaptor. The quenched reactions are then processed to detect product formation by adding 0.625 uL of Detection Solution to all wells using the BioRaptor (Detection mix C, Detection Mix A, and Detection Mix B combined together in an 18:1:1 ratio prepared 2 hours prior to use).
# (§4) The loss of the HTRF signal is due to the displacement of biotinylated-PIP3 from the PH domain by the PI3K-dependent conversion of PIP2 to PIP3. This loss of signal is nonlinear with respect to both increasing product and time. This non-linear detection will impact accuracy of IC50 calculations; therefore, there is a need for a correction factor to obtain more accurate IC50 values. This correction is derived from a PIP3 standard curve run in a separate assay plate. All data were calculated using the ratio of acceptor (APC) to donor (Europium) fluorescence in each well of the assay plate. […] An IC50 was then calculated fitting the % inhibition data to the equation: % inhibition=min+(Max−min)/1+([inhibitor]/IC50)^n) where min is the % inhibition with inhibitor, max is the signal in DMSO control, and n is the Hill slope.
# PI3K-alpha = target: T2, PI3K-alpha (Homo sapiens, UniProt P42336); assay: HTRF PI3K biochemical assay, alpha isoform; conditions: ratio PI3K-alpha IC50 value / PI3K-delta IC50 value
# T2 construct: purchased Upstate; Millipore 14-602
# T2 sequence (P42336 whole entry, canonical isoform): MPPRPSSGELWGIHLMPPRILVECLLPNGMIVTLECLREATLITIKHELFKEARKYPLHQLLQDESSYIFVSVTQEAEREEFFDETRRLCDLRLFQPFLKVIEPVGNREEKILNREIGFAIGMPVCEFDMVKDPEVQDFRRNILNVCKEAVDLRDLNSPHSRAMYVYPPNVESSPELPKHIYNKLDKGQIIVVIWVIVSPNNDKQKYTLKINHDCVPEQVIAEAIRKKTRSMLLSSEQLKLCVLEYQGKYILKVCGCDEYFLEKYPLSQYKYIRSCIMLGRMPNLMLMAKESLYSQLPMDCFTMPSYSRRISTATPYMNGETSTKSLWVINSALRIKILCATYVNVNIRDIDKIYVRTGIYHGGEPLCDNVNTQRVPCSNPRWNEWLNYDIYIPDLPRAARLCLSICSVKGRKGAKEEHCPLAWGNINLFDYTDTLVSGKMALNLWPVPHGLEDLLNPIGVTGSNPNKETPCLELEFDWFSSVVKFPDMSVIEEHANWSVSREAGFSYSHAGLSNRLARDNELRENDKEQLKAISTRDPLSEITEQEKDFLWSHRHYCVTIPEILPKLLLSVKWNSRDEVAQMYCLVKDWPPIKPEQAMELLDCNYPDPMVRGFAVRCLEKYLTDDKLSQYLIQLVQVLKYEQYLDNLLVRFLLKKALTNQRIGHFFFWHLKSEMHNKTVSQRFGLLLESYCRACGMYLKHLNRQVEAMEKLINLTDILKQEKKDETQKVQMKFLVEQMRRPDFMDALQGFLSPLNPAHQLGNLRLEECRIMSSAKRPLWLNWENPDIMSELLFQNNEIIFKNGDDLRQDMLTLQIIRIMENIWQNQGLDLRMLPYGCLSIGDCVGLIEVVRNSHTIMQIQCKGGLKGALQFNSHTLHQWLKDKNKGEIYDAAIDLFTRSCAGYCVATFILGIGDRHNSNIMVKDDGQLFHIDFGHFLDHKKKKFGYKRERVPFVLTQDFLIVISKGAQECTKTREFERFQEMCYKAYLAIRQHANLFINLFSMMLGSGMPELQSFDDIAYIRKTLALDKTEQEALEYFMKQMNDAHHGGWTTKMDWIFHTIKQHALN
# T2 sequence (P27986 whole entry partner, canonical isoform): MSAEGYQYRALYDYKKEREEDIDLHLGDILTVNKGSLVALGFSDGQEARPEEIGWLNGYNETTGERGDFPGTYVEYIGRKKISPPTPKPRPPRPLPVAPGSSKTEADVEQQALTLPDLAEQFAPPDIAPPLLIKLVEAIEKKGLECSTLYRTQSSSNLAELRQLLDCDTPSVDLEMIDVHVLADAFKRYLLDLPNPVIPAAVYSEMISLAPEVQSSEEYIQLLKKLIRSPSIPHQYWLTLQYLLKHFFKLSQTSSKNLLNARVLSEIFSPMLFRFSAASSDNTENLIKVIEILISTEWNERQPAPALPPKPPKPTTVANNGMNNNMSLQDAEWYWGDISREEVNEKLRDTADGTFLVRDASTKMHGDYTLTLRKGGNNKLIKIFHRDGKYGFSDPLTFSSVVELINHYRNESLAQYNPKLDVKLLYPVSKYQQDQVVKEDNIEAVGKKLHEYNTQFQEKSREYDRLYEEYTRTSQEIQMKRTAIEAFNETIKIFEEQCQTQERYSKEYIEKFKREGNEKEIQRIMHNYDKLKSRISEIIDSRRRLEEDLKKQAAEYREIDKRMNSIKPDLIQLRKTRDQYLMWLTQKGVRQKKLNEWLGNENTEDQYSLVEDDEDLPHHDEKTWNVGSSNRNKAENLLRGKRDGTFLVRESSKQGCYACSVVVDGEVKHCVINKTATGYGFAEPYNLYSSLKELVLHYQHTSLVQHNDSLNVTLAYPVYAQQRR
# Text: The PI3-Kinase biochemical assays were developed to measure the intrinsic potency and compound dependent inhibition of the alpha, beta, delta, and gamma PI3K isoform enzymes. This assay was developed and further optimized from a kit produced by Upstate (Millipore catalog #33-047) and has been configured for HTS and SAR screening. Briefly, this procedure exploits the exquisite specificity and high affinity binding of enzyme reaction substrate phosphatidyl(3,4,5)triphosphate (PIP3) to the GRP1 pleckstrin homology (PH) domain to generate the signal. In the absence of PIP3, an HTRF (Homogeneous Time-Resolved Fluorescence energy transfer) complex is formed consisting of europium (Eu)-labeled anti-GST, GSTtagged GRP1-PH domain, biotin-PIP3 and streptavidin conjugated APC. The native PIP3 produced by PI3-Kinase activity disrupts in a competitive manner the biotin-PIP3 from the PH domain, resulting in the loss of energy transfer (HTRF complex) and a decrease in the signal. The format of this assay is the same for all 4 isoforms of PI3K; the differences lie in the concentration of enzyme used to achieve robust assay window. The alpha, beta, and delta assays are run at 0.5, 1, and 0.3 nM enzymes and the gamma assay is run at 5 nM enzyme. The ATP concentration is 100 uM in the alpha, beta, and delta assays and 50 uM ATP in the gamma assay. All reactions are run at 5 uM PIP2.
# as §1, §2, §3, §4
# The determination of relative selectivity for a given compound is defined as the relative ratio of the (PI3K-alphalC50 value/PI3K-delta IC50 value).
# T1 sequence (O00329 whole entry, canonical isoform): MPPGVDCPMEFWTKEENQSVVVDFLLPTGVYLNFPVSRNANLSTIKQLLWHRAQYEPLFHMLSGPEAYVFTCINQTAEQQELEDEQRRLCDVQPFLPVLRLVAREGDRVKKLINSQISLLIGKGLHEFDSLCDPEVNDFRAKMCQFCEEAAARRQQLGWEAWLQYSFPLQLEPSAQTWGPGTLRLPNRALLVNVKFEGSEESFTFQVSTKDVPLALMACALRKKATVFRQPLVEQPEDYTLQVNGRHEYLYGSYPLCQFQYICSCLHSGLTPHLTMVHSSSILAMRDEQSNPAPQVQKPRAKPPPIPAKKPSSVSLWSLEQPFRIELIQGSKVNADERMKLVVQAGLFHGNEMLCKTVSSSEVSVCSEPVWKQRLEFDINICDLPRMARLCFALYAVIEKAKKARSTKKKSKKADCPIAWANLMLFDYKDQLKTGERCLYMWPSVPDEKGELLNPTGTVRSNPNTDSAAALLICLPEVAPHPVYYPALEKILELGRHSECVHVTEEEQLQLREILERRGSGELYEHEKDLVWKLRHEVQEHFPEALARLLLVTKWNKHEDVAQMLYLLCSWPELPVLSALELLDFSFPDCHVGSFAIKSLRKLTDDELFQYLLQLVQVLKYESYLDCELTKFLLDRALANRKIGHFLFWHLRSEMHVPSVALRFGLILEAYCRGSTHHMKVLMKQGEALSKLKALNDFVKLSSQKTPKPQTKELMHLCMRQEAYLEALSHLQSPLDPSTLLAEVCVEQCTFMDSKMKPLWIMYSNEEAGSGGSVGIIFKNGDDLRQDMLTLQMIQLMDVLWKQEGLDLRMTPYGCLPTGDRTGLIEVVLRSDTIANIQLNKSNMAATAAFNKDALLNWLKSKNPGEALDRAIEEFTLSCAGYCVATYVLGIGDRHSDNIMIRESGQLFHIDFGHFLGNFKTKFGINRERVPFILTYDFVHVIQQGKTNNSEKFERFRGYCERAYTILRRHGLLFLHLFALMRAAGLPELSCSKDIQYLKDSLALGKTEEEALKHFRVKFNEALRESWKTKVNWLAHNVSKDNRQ
# T1 sequence (P27986 whole entry partner, canonical isoform): as the sequence (P27986 whole entry partner, canonical isoform) above
smiles,measurement,setting,value
"CCn1ncc(-c2nc3c(N[C@H]4CCCN(C(=O)C5CCOCC5)C4)ncnc3n2C)c1C [Compound 2-29, 8-(1-ethyl-5-methyl-1H-pyrazol-4-yl)-9-methyl-N-[(3S)-1-(tetrahydro-2H-pyran-4-ylcarbonyl)piperidin-3-yl]-9H-purin-6-amine]",IC50,PI3K-delta,11 nM
same,Selectivity versus PI3Kalpha,PI3K-alpha,>10
"CCn1c(-c2cnc(C)nc2)nc2c(N[C@H]3CCN(C(=O)C4(NC)CC4)C3)ncnc21 [Compound 2-82, 9-ethyl-N-[(3S)-1-{[1-(methylamino)cyclopropyl]car-bonyl}pyrrolidin-3-yl]-8-(2-methylpyrimidin-5-yl)-9H-purin-6-amine]",IC50,PI3K-delta,21 nM
same,Selectivity versus PI3Kalpha,PI3K-alpha,>10
"CCn1c(-c2ccc(C(F)(F)F)nc2)nc2c(N[C@H]3CCN(C(=O)C4CC4)C3)ncnc21 [Compound 2-49, N-[(3S)-1-(cyclopropylcarbonyl)pyrrolidin-3-yl]-9-ethyl-8-[6-(trifluoromethyl)pyridin-3-yl]-9H-purin-6-amine]",IC50,PI3K-delta,1 nM
same,Selectivity versus PI3Kalpha,PI3K-alpha,>10
"CCn1c(-c2cnc(C)nc2)nc2c(NC3CN(C(=O)c4cocn4)CC3C)ncnc21 (single isomer, unassigned) [Compound 2-89, 9-ethyl-N-[-{(3S,4R or 3R,4S)-4-methyl-1-(1,3-oxazol-4-ylcarbonyl)pyrrolidin-3-yl]-8-(2-methylpyrimidin-5-yl)-9H-purin-6-amine]",IC50,PI3K-delta,3.9 nM
same,Selectivity versus PI3Kalpha,PI3K-alpha,>10
"CCn1c(-c2cnc(C)nc2)nc2c(N[C@H]3CCN(C(=O)C4(C#N)CC4)C3)ncnc21 [Compound 2-65, 1-{[(3S)-3-{[9-ethyl-8-(2-methylpyrimidin-5-yl)-9H-purin-6-yl]amino}pyrrolidin-1-yl]carbonyl}cyclopropanecarbo-nitrile]",IC50,PI3K-delta,11 nM
same,Selectivity versus PI3Kalpha,PI3K-alpha,>10
"Cc1ncc(-c2nc3c(N[C@H]4CCN(C(=O)C5CC5)C4)ncnc3n2C)cn1 [Compound 3-23, N-[(3S)-1-(cyclopropylcarbonyl)pyrrolidin-3-yl]-9-methyl-8-(2-methylpyrimidin-5-yl)-9H-purin-6-amine]",IC50,PI3K-delta,5.4 nM
same,Selectivity versus PI3Kalpha,PI3K-alpha,>10
"CCC(=O)N1CC[C@H](Nc2ncnc3c2nc(-c2ccc(OC)nc2)n3C)C1 [Compound 3-31, 8-(6-methoxypyridin-3-yl)-9-methyl-N-[(3S)-1-propanoylpyrrolidin-3-yl]-9H-purin-6-amine]",IC50,PI3K-delta,4 nM
same,Selectivity versus PI3Kalpha,PI3K-alpha,>10
"CCn1c(-c2cnc(C)nc2)nc2c(N[C@H]3CCN(C(=O)NC(C)(C)C(=O)OC)C3)ncnc21 [Compound 12-24, methyl N-{[(3S)-3-{[9-ethyl-8-(2-methylpyrimidin-5-yl)-9H-purin-6-yl]amino}pyrrolidin-1-yl]carbonyl}-2-methylalaninate]",IC50,PI3K-delta,1.9 nM
same,Selectivity versus PI3Kalpha,PI3K-alpha,>10
"CCn1c(C(=O)NC2COC2)nc2c(N[C@H]3CCN(C(=O)C4CC4)C3)ncnc21 [Compound 6-6, 6-{[(3S)-1-(cyclopropylcarbonyl)pyrrolidin-3-yl]amino}-9-ethyl-N-oxetan-3-yl-9H-purine-8-carboxamide]",IC50,PI3K-delta,62 nM
same,Selectivity versus PI3Kalpha,PI3K-alpha,>10
"CCn1c(-c2cnc(C)nc2)nc2c(NC3CN(C(=O)C4CC4)CC3C(F)(F)F)ncnc21 (racemic) [Compound 3-22, N-[(3R,4S and 3S,4R)-1-(cyclopropylcarbonyl)-4-(trifluoromethyl)pyrrolidin-3-yl]-9-ethyl-8-(2-methylpyrimidin-5-yl)-9H-purin-6-amine]",IC50,PI3K-delta,2.9 nM
same,Selectivity versus PI3Kalpha,PI3K-alpha,>10
"CCC(=O)N1CC[C@H](Nc2ncnc3c2nc(-c2ccc(C)nc2)n3C)C1 [Compound 3-5, (S)-1-(3-((9-methyl-8-(6-methylpyridin-3-yl)-9H-purin-6-yl)amino)pyrrolidin-1-yl)propan-1-one]",IC50,PI3K-delta,4.5 nM
same,Selectivity versus PI3Kalpha,PI3K-alpha,>10
"CCC(=O)N1CC[C@H](Nc2ncnc3c2nc(-c2cnn(CC)c2C)n3CC(F)F)C1 [Compound 9-4, 9-(2,2-difluoroethyl)-8-(1-ethyl-5-methyl-1H-pyrazol-4-yl)-N-[(3S)-1-propanoylpyrrolidin-3-yl]-9H-purin-6-amine]",IC50,PI3K-delta,< 1 nM
same,Selectivity versus PI3Kalpha,PI3K-alpha,>10
"CCn1c(C(=O)Nc2ccccc2)nc2c(N[C@H]3CCN(C(=O)C4CC4)C3)ncnc21 [Compound 6-18, 6-{[(3S)-1-(cyclopropylcarbonyl)pyrrolidin-3-yl]amino}-9-ethyl-N-phenyl-9H-purine-8-carboxamide]",IC50,PI3K-delta,15 nM
same,Selectivity versus PI3Kalpha,PI3K-alpha,>10
"CCn1c(-c2ccc(C(F)(F)F)cc2)nc2c(N[C@H]3CCN(C(=O)C4CC4)C3)ncnc21 [Compound 3-30, N-[(3S)-1-(cyclopropylcarbonyl)pyrrolidin-3-yl]-9-ethyl-8-[4-(trifluoromethyl)phenyl]-9H-purin-6-amine]",IC50,PI3K-delta,1.2 nM
same,Selectivity versus PI3Kalpha,PI3K-alpha,>10
"CCn1c(-c2cnc(C)nc2)nc2c(N(C)[C@H]3CCN(C(=O)C4CC4)C3)ncnc21 [Compound 3-29, N-[(3S)-1-(cyclopropylcarbonyl)pyrrolidin-3-yl]-9-ethyl-N-methyl-8-(2-methylpyrimidin-5-yl)-9H-purin-6-amine]",IC50,PI3K-delta,40 nM
same,Selectivity versus PI3Kalpha,PI3K-alpha,>10
"CCn1ncc(-c2nc3c(N[C@H]4CCCN(C(=O)OC(C)(C)C)C4)ncnc3n2C)c1C [Compound 1-12, (S)-tert-butyl 3-((8-(1-ethyl-5-methyl-1H-pyrazol-4-yl)-9-methyl-9H-purin-6-yl)amino)piperidine-1-carboxylate]",IC50,PI3K-delta,19 nM
same,Selectivity versus PI3Kalpha,PI3K-alpha,>10
"CCn1c(-c2cnc(C)nc2)nc2c(NC3CCC(=O)N(CC4CC4)C3)ncnc21 (single isomer, unassigned) [Compound 14-6, 5(S or R)-1-(cyclopropylmethyl)-5-{[9-ethyl-8-(2-methylpyrimidin-5-yl)-9H-purin-6-yl]amino}piperidin-2-one]",IC50,PI3K-delta,4.3 nM
same,Selectivity versus PI3Kalpha,PI3K-alpha,>10
"CCn1c(-c2cnc(C)nc2)nc2c(N[C@H]3CCCN(C(=O)C(C)C)C3)ncnc21 [Compound 2-44, 9-ethyl-N-[(3S)-1-(2-methylpropanoyl)piperidin-3-yl]-8-(2-methylpyrimidin-5-yl)-9H-purin-6-amine]",IC50,PI3K-delta,9 nM
same,Selectivity versus PI3Kalpha,PI3K-alpha,>10
"CCn1c(-c2cnc(C)nc2)nc2c(N[C@H]3C[C@@H](C(=O)OC)N(C(=O)OC(C)(C)C)C3)ncnc21 [Compound 1-19, 1-tert-butyl 2-methyl (2S,4S)-4-{[9-ethyl-8-(2-methylpyrimidin-5-yl)-9H-purin-6-yl]amino}pyrrolidine-1,2-dicarboxylate]",IC50,PI3K-delta,69 nM
same,Selectivity versus PI3Kalpha,PI3K-alpha,>10
"CCn1c(-c2cnc(C)nc2)nc2c(N[C@H]3CCN(C(=O)NC4CCC4)C3)ncnc21 [Compound 12-22, (3S)-N-cyclobutyl-3-{[9-ethyl-8-(2-methylpyrimidin-5-yl)-9H-purin-6-yl]amino}pyrrolidine-1-carboxamide]",IC50,PI3K-delta,5.3 nM
same,Selectivity versus PI3Kalpha,PI3K-alpha,>10
"CCn1c(N(C)CC(C)C)nc2c(N[C@H]3CCN(C(=O)C4CC4)C3)ncnc21 [Compound 8-4, cyclopropyl[(3S)-3-({9-ethyl-8-[methyl(2-methylpropyl)amino]-9H-purin-6-yl}amino)pyrrolidin-1-yl]methanone]",IC50,PI3K-delta,100 nM
same,Selectivity versus PI3Kalpha,PI3K-alpha,>10
